Experiments:
[1] = tested on: subjects treated with REBETRON for chronic hepatitis C; conditions: either ribavirin, interferon, or both agents; cited from earlier work
[2] = tested on: anemic HCV infected patients receiving combination RBV/IFN alfa-2b; assay: Open-label, randomized, parallel-group study of PROCRIT once weekly versus standard of care in hepatitis C patients on ribavirin/interferon alfa-2b; assay type: in vivo, human
[3] = tested on: patients co-infected with HIV and HCV; conditions: cited from earlier work
TNFβ (lymphotoxin α) = molecular target: T1, TNFβ (lymphotoxin α) (Homo sapiens, UniProt P01374); conditions: cited from earlier work
T1 sequence (P01374 35-205): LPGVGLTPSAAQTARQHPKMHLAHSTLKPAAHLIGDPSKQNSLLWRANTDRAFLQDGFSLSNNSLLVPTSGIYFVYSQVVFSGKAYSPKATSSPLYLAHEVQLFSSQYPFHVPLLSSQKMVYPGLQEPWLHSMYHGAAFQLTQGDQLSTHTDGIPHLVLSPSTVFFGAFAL

[4] = in vivo, 5 mg/kg; cited from earlier work
[5] = last available time point vs baseline, PROCRIT 40,000 Units qw s.c., N=22

For NC(=O)c1ncn([C@@H]2O[C@H](CO)[C@@H](O)[C@H]2O)n1 [REBETOL, 1β-D-ribofuranosyl 1H-1,2,4-Triazole-3-carboxamide], the “patients requiring a dose modification” value [1] is given as “about 26%”.
For Epoetin alfa [PROCRIT], the “hemoglobin levels (in words)” value ([2]; anemic patients on Ribavirin/INF-alpha, FIG. 1) was “increase their hemoglobin levels to near normal levels”, the “Hb Range” value ([2]; baseline, before PROCRIT, N=25) was 9.1 to 12.0 g/dL and the “Mean Hb” value ([2]; baseline, before PROCRIT, N=25) was 11 g/dL. For the same molecule, the “Change Hb Range” value [2, 5] was -1.4 to 6.2 g/dL, the “Mean change Hb” value [2, 5] was 2.4 g/dL and the “Hb Range” value ([2]; last available time point, PROCRIT 40,000 Units qw s.c., N=22) was 7.7 to 16.8 g/dL. For the same molecule, the “Mean Hb” value ([2]; last available time point, analysis after 16 weeks, PROCRIT 40,000 Units qw s.c., N=22) was 13.5 g/dL, the patient well being ([2]; reported even before hemoglobin levels improved) was “demonstrated better well being” and the “ability to maintain Ribavirin dosing” value ([2]; throughout the study period, FIG. 2) was “increased ability to maintain Ribavirin dosing”. For the same molecule, the “hemoglobin (Hb) value at initiation of r-HuEPO” value ([3]; before r-HuEPO 40,000 U once weekly) was 10 g/dL and the “hemoglobin (Hb) value after r-HuEPO treatment” value ([3]; r-HuEPO 40,000 U once weekly, after a median of four weeks) was 12.7 g/dL.
For “Infliximab: monoclonal antibody that blocks the biological activity of circulating TNFα”, the “neutralization of TNFβ (lymphotoxin α)” value (TNFβ (lymphotoxin α)) is given as “does not neutralize”, the “median Cmax” value [4] is given as 118 µg/mL and the “median Vd (volume of distribution at steady state)” value [4] is given as 3.0 L. For the same molecule, the terminal half-life [4] was 228 h.
